Data: ChEMBL document CHEMBL1126733, “Orally active, nonpeptide vasopressin V1 antagonists. A novel series of 1-(1-substituted 4-piperidyl)-3,4-dihdyro-2(1H)-quinolinone” (J Med Chem, 1993)
Active and inactive are the calls of the source. The calls are words filed in the database; no cut-off is given here.

Legend:
[1] = biological target: Vasopressin V1a receptor (Rattus norvegicus, UniProt P30560); test: Ability to displace [3H]- Arginine Vasopressin (AVP) from its specific binding sites in rat liver (V1 receptor)
[2] = biological target: Vasopressin V2 receptor (Rattus norvegicus, UniProt Q00788); test: Ability to displace [3H]- Arginine Vasopressin (AVP) from its specific binding sites in rat […]
[3] = biological target: Vasopressin V1a receptor (Rattus norvegicus) (UniProt P30560); test: Inhibition dose for AVP (30 milliunits/kg, iv) induced vasoconstriction when orally administarted; type: functional, organism-based
[4] = biological target: Vasopressin V1a receptor (Rattus norvegicus) (UniProt P30560); test: Inhibition expressed as percent change in diastolic blood pressure increased by AVP (30 milliunits / kg, iv) before and after oral administration at 23 uM/kg; type: functional, organism-based; conditions: Artery
[5] = biological target: Vasopressin V1a receptor (Rattus norvegicus) (UniProt P30560); conditions: Artery; 22 uM
Description: Inhibition expressed as percent change in diastolic blood pressure increased by AVP (30 milliunits / kg, iv) before and after oral administration at 22 uM/kg

[6] = biological target: Vasopressin V1a receptor (Rattus norvegicus) (UniProt P30560); conditions: Artery; 290 uM
Description: Inhibition expressed as percent change in diastolic blood pressure increased by AVP (30 milliunits / kg, iv) before and after oral administration at 290 uM/kg

[7] = biological target: Vasopressin V1a receptor (Rattus norvegicus) (UniProt P30560); test: Inhibition expressed as percent change in diastolic blood pressure increased by AVP (30 milliunits / kg, iv) before and after oral administration at 21 uM/kg; type: functional, organism-based; conditions: Artery
[8] = biological target: Vasopressin V1a receptor (Rattus norvegicus) (UniProt P30560); test: Inhibition expressed as percent change in diastolic blood pressure increased by AVP (30 milliunits / kg, iv) before and after oral administration at 20 uM/kg); No effect; type: functional, organism-based; conditions: Artery
[9] = biological target: Vasopressin V1a receptor (Rattus norvegicus) (UniProt P30560); test: Inhibition expressed as percent change in diastolic blood pressure increased by AVP (30 milliunits / kg, iv) before and after oral administration at 79 uM/kg (n=7); type: functional, organism-based; conditions: Artery
[10] = biological target: Vasopressin V1a receptor (Rattus norvegicus) (UniProt P30560); test: Inhibition expressed as percent change in diastolic blood pressure increased by AVP (30 milliunits / kg, iv) before and after oral administration at 270 uM/kg; type: functional, organism-based; conditions: Artery
[11] = biological target: Vasopressin V1a receptor (Rattus norvegicus) (UniProt P30560); test: Inhibition expressed as percent change in diastolic blood pressure increased by AVP (30 milliunits / kg, iv) before and after oral administration at 76 uM/kg (n=4); type: functional, organism-based; conditions: Artery

Vasopressin V1a receptor, sequence (P30560 whole entry): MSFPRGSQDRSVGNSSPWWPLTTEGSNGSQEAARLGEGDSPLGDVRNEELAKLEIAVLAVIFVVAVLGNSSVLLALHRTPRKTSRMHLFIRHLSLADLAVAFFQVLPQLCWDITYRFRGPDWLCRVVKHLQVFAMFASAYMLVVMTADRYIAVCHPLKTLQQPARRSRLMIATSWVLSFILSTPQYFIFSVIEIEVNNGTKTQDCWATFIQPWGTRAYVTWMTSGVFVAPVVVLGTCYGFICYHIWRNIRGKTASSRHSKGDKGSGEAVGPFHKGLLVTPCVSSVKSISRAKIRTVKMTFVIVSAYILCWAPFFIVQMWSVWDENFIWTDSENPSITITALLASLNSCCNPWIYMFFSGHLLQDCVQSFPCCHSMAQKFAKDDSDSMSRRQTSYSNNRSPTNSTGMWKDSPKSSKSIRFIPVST
Vasopressin V1a receptor (Rattus norvegicus), sequence (P30560 whole entry, looked up): as the sequence (P30560 whole entry) above
Vasopressin V2 receptor, sequence (Q00788 whole entry): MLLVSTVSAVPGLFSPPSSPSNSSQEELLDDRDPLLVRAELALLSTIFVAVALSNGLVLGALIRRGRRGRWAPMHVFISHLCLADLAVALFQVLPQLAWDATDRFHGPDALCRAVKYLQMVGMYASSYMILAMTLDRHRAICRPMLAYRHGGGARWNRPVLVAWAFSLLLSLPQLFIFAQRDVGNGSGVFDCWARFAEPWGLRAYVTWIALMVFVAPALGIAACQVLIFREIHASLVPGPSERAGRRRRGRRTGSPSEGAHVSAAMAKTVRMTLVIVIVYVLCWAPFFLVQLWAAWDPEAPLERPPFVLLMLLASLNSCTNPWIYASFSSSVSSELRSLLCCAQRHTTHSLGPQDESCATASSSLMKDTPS

| SMILES | IC50 [1] [µM] | IC50 [2] [µM] | other results |
| --- | --- | --- | --- |
| O=C(c1ccc([N+](=O)[O-])cc1)N1CCC(N2C(=O)CCc3ccccc32)CC1 | 2 | > 100 | – |
| CC(=O)NCCOc1ccc(C(=O)N2CCC(N3C(=O)CCc4ccccc43)CC2)cc1 | 0.42 | > 100 | ID50 [3]: 7.7 µmol/kg; inhibition [4]: 80% |
| CC(=O)NCCCCCCCCOc1ccc(C(=O)N2CCC(N3C(=O)CCc4ccccc43)CC2)cc1 | 0.3 | > 100 | – |
| O=C(c1ccccc1Cl)N1CCC(N2C(=O)CCc3ccccc32)CC1 | 9.9 | > 100 | – |
| Nc1ccc(C(=O)N2CCC(N3C(=O)CCc4ccccc43)CC2)cc1 | 3.7 | > 100 | – |
| CN1CCC(N2C(=O)CCc3ccccc32)CC1 | > 100 | > 50 | – |
| NCCCCCOc1ccc(C(=O)N2CCC(N3C(=O)CCc4ccccc43)CC2)cc1 | 0.28 | > 100 | – |
| CN(C)c1ccc(C(=O)N2CCC(N3C(=O)CCc4ccccc43)CC2)cc1 | 0.47 | > 100 | – |
| O=C(c1ccccc1[N+](=O)[O-])N1CCC(N2C(=O)CCc3ccccc32)CC1 | 8.4 | > 100 | – |
| CC(=O)Oc1ccccc1C(=O)N1CCC(N2C(=O)CCc3ccccc32)CC1 | 1.4 | > 100 | – |
| NCCCCCCOc1ccc(C(=O)N2CCC(N3C(=O)CCc4ccccc43)CC2)cc1 | 0.1 | > 100 | – |
| COC(=O)c1ccc(C(=O)N2CCC(N3C(=O)CCc4ccccc43)CC2)cc1 | 3.5 | > 100 | – |
| CC(=O)NCCCOc1ccc(C(=O)N2CCC(N3C(=O)CCc4ccccc43)CC2)cc1 | 0.44 | > 100 | ID50 [3]: 4.4 µmol/kg; inhibition [5]: 93% |
| CC(=O)Nc1ccc(C(=O)N2CCC(N3C(=O)CCc4ccccc43)CC2)cc1 | 2.8 | > 100 | – |
| CCCCOc1ccc(C(=O)N2CCC(N3C(=O)CCc4ccccc43)CC2)cc1 | 0.42 | > 100 | – |
| O=C(c1ccccc1O)N1CCC(N2C(=O)CCc3ccccc32)CC1 | 1.5 | > 100 | – |
| O=CNCCCCOc1ccc(C(=O)N2CCC(N3C(=O)CCc4ccccc43)CC2)cc1 | 0.25 | > 100 | – |
| Cc1ccc(C(=O)N2CCC(N3C(=O)CCc4ccccc43)CC2)cc1 | 0.5 | > 100 | inhibition [6]: 23% |
| O=C(c1ccco1)N1CCC(N2C(=O)CCc3ccccc32)CC1 | 11 | > 100 | – |

| SMILES | IC50 [1] [µM] | IC50 [2] [µM] | other results |
| --- | --- | --- | --- |
| CCC(=O)NCCCOc1ccc(C(=O)N2CCC(N3C(=O)CCc4ccccc43)CC2)cc1 | 0.78 | > 100 | – |
| COc1ccc(C(=O)N2CCC(N3C(=O)CCc4ccccc43)CC2)cc1 | 0.62 | > 100 | – |
| O=C(c1ccc(F)cc1)N1CCC(N2C(=O)CCc3ccccc32)CC1 | 1.4 | > 100 | – |
| NC(=O)c1ccc(C(=O)N2CCC(N3C(=O)CCc4ccccc43)CC2)cc1 | 11 | > 100 | – |
| O=C(c1ccc(Br)cc1)N1CCC(N2C(=O)CCc3ccccc32)CC1 | 0.5 | 73 | – |
| O=C(c1ccccc1)N1CCC(N2C(=O)CCc3ccccc32)CC1 | 1.9 | > 50 | – |
| O=C(c1cccc(Cl)c1)N1CCC(N2C(=O)CCc3ccccc32)CC1 | 4.4 | > 100 | – |
| NCCOc1ccc(C(=O)N2CCC(N3C(=O)CCc4ccccc43)CC2)cc1 | 2 | > 100 | – |
| CCc1ccc(C(=O)N2CCC(N3C(=O)CCc4ccccc43)CC2)cc1 | 0.5 | 80 | – |
| CC(=O)Oc1cccc(C(=O)N2CCC(N3C(=O)CCc4ccccc43)CC2)c1 | 3.7 | > 100 | – |
| Cc1ccccc1C(=O)N1CCC(N2C(=O)CCc3ccccc32)CC1 | 8.4 | > 100 | – |
| O=C(c1ccncc1)N1CCC(N2C(=O)CCc3ccccc32)CC1 | 37 | > 100 | – |
| O=C1CCc2ccccc2N1C1CCN(Cc2ccccc2)CC1 | > 100 | > 100 | – |
| NCCCCOc1ccc(C(=O)N2CCC(N3C(=O)CCc4ccccc43)CC2)cc1 | 0.33 | > 100 | – |
| O=C(Cc1ccccc1)N1CCC(N2C(=O)CCc3ccccc32)CC1 | 12 | > 100 | – |
| Cc1cccc(C(=O)N2CCC(N3C(=O)CCc4ccccc43)CC2)c1 | 1.3 | > 100 | – |
| N#Cc1ccc(C(=O)N2CCC(N3C(=O)CCc4ccccc43)CC2)cc1 | 3.1 | > 100 | – |
| O=C(O)c1ccc(C(=O)N2CCC(N3C(=O)CCc4ccccc43)CC2)cc1 | > 100 | > 100 | – |
| CC(=O)NCCCCCOc1ccc(C(=O)N2CCC(N3C(=O)CCc4ccccc43)CC2)cc1 | 0.16 | > 100 | inhibition [7]: 81%; ID50 [3]: 4.7 µmol/kg |

| SMILES | IC50 [1] [µM] | IC50 [2] [µM] | other results |
| --- | --- | --- | --- |
| O=C(c1ccc(Cl)cc1)N1CCC(N2C(=O)CCc3ccccc32)CC1 | 1.2 | 78 | – |
| CCCCCCOc1ccc(C(=O)N2CCC(N3C(=O)CCc4ccccc43)CC2)cc1 | 1.5 | 54 | – |
| O=C(c1cnccn1)N1CCC(N2C(=O)CCc3ccccc32)CC1 | 26 | > 100 | – |
| O=CNCCCOc1ccc(C(=O)N2CCC(N3C(=O)CCc4ccccc43)CC2)cc1 | 0.24 | > 100 | – |
| O=C(c1cccc([N+](=O)[O-])c1)N1CCC(N2C(=O)CCc3ccccc32)CC1 | 3.1 | > 100 | – |
| NCCCCCCCCOc1ccc(C(=O)N2CCC(N3C(=O)CCc4ccccc43)CC2)cc1 | 0.068 | 44 | inhibition [8]: inactive |
| CC(=O)NCCCCOc1ccc(C(=O)N2CCC(N3C(=O)CCc4ccccc43)CC2)cc1 | 0.21 | > 100 | inhibition [7]: 78%; ID50 [3]: 5.3 µmol/kg |
| O=C(c1ccc(O)cc1)N1CCC(N2C(=O)CCc3ccccc32)CC1 | 1.3 | > 100 | – |
| CCOc1ccc(C(=O)N2CCC(N3C(=O)CCc4ccccc43)CC2)cc1 | 0.21 | > 100 | inhibition [9]: 75% |
| COC(=O)NCCCOc1ccc(C(=O)N2CCC(N3C(=O)CCc4ccccc43)CC2)cc1 | 0.36 | > 100 | – |
| CCCc1ccc(C(=O)N2CCC(N3C(=O)CCc4ccccc43)CC2)cc1 | 0.33 | > 100 | inhibition [10]: 86% |
| O=C(c1cccc(O)c1)N1CCC(N2C(=O)CCc3ccccc32)CC1 | 6.3 | > 100 | – |
| CC(=O)N(C)CCCOc1ccc(C(=O)N2CCC(N3C(=O)CCc4ccccc43)CC2)cc1 | 0.54 | > 100 | – |
| NCCCOc1ccc(C(=O)N2CCC(N3C(=O)CCc4ccccc43)CC2)cc1 | 0.75 | > 100 | – |
| CCCOc1ccc(C(=O)N2CCC(N3C(=O)CCc4ccccc43)CC2)cc1 | 0.32 | > 100 | inhibition [11]: 65% |
| CC(=O)NCCCCCCOc1ccc(C(=O)N2CCC(N3C(=O)CCc4ccccc43)CC2)cc1 | 0.12 | > 100 | – |
| CC(=O)Oc1ccc(C(=O)N2CCC(N3C(=O)CCc4ccccc43)CC2)cc1 | – | > 100 | – |
| CCCCc1ccc(C(=O)N2CCC(N3C(=O)CCc4ccccc43)CC2)cc1 | 0.35 | 83 | – |
| O=C(c1cccs1)N1CCC(N2C(=O)CCc3ccccc32)CC1 | 2.5 | > 100 | – |
